Assay results from the supplement of paper PMC10307832.

Assays:
Experiment in all cases: relative viability (nuclei count vs DMSO), 5 days (fraction); higher = more cells survive
[1] = compound: CC1(C)CCC(c2ccc(Cl)cc2)=C(CN2CCN(c3ccc(C(=O)NS(=O)(=O)c4ccc(N[C@H](CCN5CCOCC5)CSc5ccccc5)c(S(=O)(=O)C(F)(F)F)c4)cc3)CC2)C1 [Navitoclax]
In short: (§1)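 On vehicle-anchored 1536-well plates, lung cancer cell lines held overnight at 37 °C were pinned with five library-drug doses (not always all listed) spaced by √10. With no medium change over 5 days, they were then fixed, permeabilised and Hoechst-stained in one step and imaged at 4×. MetaXpress counted nuclei, and viability is the median across plates of treated-well over vehicle-well nuclei. Acceptance needed control CV below 25% and at least one doubling.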

[2] = compound: CCCCCCCC[C@H]1[C@@H](C(=C)C(=O)O1)C(=O)O [C-75]
In short: as §1

[3] = compound: NC(=O)Nc1cc(-c2cccc(F)c2)sc1C(=O)N[C@H]1CCCNC1 [AZD7762]
In short: as §1

[4] = compound: O=C(O)c1ccc(-c2c[nH]c3ncc(-c4ccccc4)cc23)cc1C1CCCC1
In short: as §1

[5] = compound: Oc1nc(-c2ccc(C(F)(F)F)cc2)nc2c1CSCC2 [XAV939]
In short: as §1

Cell Line	relative viability ([1]; 0.005 µM)	relative viability ([1]; 0.01581 µM)	relative viability ([1]; 0.05 µM)	relative viability ([1]; 0.1581 µM)	relative viability ([1]; 0.5 µM)	relative viability ([1]; 0.5 µM, anchor plate)	relative viability ([2]; 0.08 µM)	relative viability ([2]; 0.253 µM)	relative viability ([2]; 0.8 µM)	relative viability ([2]; 2.53 µM)	relative viability ([2]; 8 µM)	relative viability ([3]; 0.01 µM)	relative viability ([3]; 0.03162 µM)	relative viability ([3]; 0.1 µM)	relative viability ([3]; 0.2 µM, anchor plate)	relative viability ([3]; 0.3162 µM)	relative viability ([3]; 1 µM)	relative viability ([4]; 0.04 µM)	relative viability ([4]; 0.1265 µM)	relative viability ([4]; 0.4 µM)	relative viability ([4]; 1.265 µM)	relative viability ([5]; 0.08 µM)	relative viability ([5]; 0.253 µM)	relative viability ([5]; 0.8 µM)	relative viability ([5]; 2.53 µM)
201T	1.06	1.14	0.974	0.957	1.04	1.19	1.02	1.16	0.987	0.917	0.993	0.937	1.01	1.02	0.596	0.92	0.878	0.997	1.05	0.948	1	0.96	0.808	0.762	0.846
A549	0.974	1.05	0.999	0.956	0.935	1.23	0.944	1.14	0.874	0.83	0.913	1	0.982	0.994		0.974	0.507	0.957	1.03	0.99	0.818	1.05	0.798	0.911	0.811
A-427	1.02	0.977	0.959	1	1.03	0.968	1.05	0.938	0.948	0.847	0.82	0.988	1.02	1.03	0.784	0.852	0.419	1.03	1.11	0.998	0.888	1.12	0.936	0.933	0.897
ABC-1	0.833	0.977	0.846	0.984	0.976		0.904	0.864	0.917	0.733	0.676	0.975	0.985	0.956	0.809	0.532	0.384	0.801	1.16	0.861	0.936	0.927	0.847	0.677	0.568
BEN	0.973	1.12	0.839	0.942			1.11	1.02	0.898	0.756	0.817	1.05	0.963	0.958	0.743	0.907	0.873	0.931	1.08	1	0.935	1.01	0.869	0.897	0.835
CAL-12T	0.935	1.05	1.01	0.985	1.01	1.14	1.06	1.15	0.859	0.922	1.08	0.993	0.982	1.06	0.646	0.724	0.241	1.08	1.17	0.914	0.734	1	0.884	0.877	0.814
COR-L23	0.934	1.16	1.15	0.974	0.965	1.01	0.965	1.04	0.945	0.778	1.06	1.1	0.912	1.17		0.854	0.231	0.921	1.01	0.973	0.723	1.11	0.92	1.01	0.928
